Data published in ChEMBL document CHEMBL4813985, “Lead optimization generates selenium-containing miconazole CYP51 inhibitors with improved pharmacological profile for the treatment of fungal infections” (Eur J Med Chem, 2021).
Values after ≈ are worked out from the molar mass of the structure shown.

Tests used:
PC-3 = test: Cytotoxicity against human PC3 cells assessed as reduction in cell viability incubated for 96 hrs by MTT assay; format: cell-based; settings: PC-3, 96 h, read-out: IC50
[1] = Hemolytic activity in rabbit RBC assessed as hemolysis ratio at 8 ug/ml measured after 3 hrs by microplate reader assay relative to control; format: ADME, cell-based, Oryctolagus cuniculus, Erythrocyte; settings: rabbit red blood cells (erythrocytes), at 8 µg/mL, read-out: Activity
Aspergillus fumigatus = test: Antifungal activity against Aspergillus fumigatus CMGCC3.7795 measured after 72 hrs by broth microdilution assay; format: functional
Candida albicans [2] = test: Fungicidal activity against Candida albicans CPCC400616 assessed as fungal killing incubated for 48 hrs followed by culturing on PDA plate for 24 hrs; format: functional; settings: time 72 hrs
[Candida] zeylanoides = Antifungal activity against Candida zeylanoides CMGCC2.3739 measured after 24 hrs by broth microdilution assay; format: functional; settings: Dujonia zeylanoides
[3] = target: T1, Lanosterol 14-alpha demethylase (Candida albicans (strain SC5314 / ATCC MYA-2876) (Yeast), UniProt P10613); test: Inhibition of CYP51 in Candida albicans ATCC SC5314 assessed as Eburicol level at 2 ug/ml after 16 hrs by GC-MS analysis (reference value: 0%); design: scale not given: the % may be the effect or the level left; settings: candida albicans sc5314, 16 h, at 2 µg/mL
[4] = target: T1, Lanosterol 14-alpha demethylase; test: Inhibition of CYP51 in Candida albicans ATCC SC5314 assessed as ergosterol level at 2 ug/ml after 16 hrs by GC-MS analysis (reference value: 98.3%); design: scale not given: the % may be the effect or the level left; settings: candida albicans sc5314, 16 h, at 2 µg/mL
Pichia kudriavzevii = test: Antifungal activity against Candida krusei AS2.1045 measured after 24 hrs by broth microdilution assay; format: functional
[5] = Hemolytic activity in rabbit RBC assessed as hemolysis ratio at 4 ug/ml measured after 3 hrs by microplate reader assay relative to control; format: ADME, cell-based, Oryctolagus cuniculus, Erythrocyte; settings: rabbit red blood cells (erythrocytes), at 4 µg/mL, read-out: Activity
[6] = target: T1, Lanosterol 14-alpha demethylase; test: Inhibition of CYP51 in Candida albicans ATCC SC5314 assessed as lanosterol level at 0.5 ug/ml after 16 hrs by GC-MS analysis (reference value: 1.7%); design: scale not given: the % may be the effect or the level left; settings: candida albicans sc5314, 16 h, at 0.5 µg/mL
[7] = target: T1, Lanosterol 14-alpha demethylase; test: Inhibition of CYP51 in Candida albicans ATCC SC5314 assessed as Obtusifoliol level at 0.5 ug/ml after 16 hrs by GC-MS analysis (reference value: 0%); design: scale not given: the % may be the effect or the level left; settings: candida albicans sc5314, 16 h, at 0.5 µg/mL
[8] = target: T1, Lanosterol 14-alpha demethylase; test: Inhibition of CYP51 in Candida albicans ATCC SC5314 assessed as Eburicol level at 0.03125 ug/ml after 16 hrs by GC-MS analysis (reference value: 0%); design: scale not given: the % may be the effect or the level left; settings: candida albicans sc5314, 16 h, at 0.03125 µg/mL
Cryptococcus neoformans = test: Antifungal activity against Cryptococcus neoformans CMGCC2.3161 measured after 72 hrs by broth microdilution assay; format: functional
[9] = target: T1, Lanosterol 14-alpha demethylase; test: Inhibition of CYP51 in Candida albicans ATCC SC5314 assessed as ergosterol level at 8 ug/ml after 16 hrs by GC-MS analysis (reference value: 98.3%); design: scale not given: the % may be the effect or the level left; settings: candida albicans sc5314, 16 h, at 8 µg/mL
MDA-MB-231 = test: Cytotoxicity against human MDA-MB-231 cells assessed as reduction in cell viability incubated for 96 hrs by MTT assay; settings: MDA-MB-231, 96 h
[10] = target: T1, Lanosterol 14-alpha demethylase; test: Inhibition of CYP51 in Candida albicans ATCC SC5314 assessed as ergosterol level at 0.5 ug/ml after 16 hrs by GC-MS analysis (reference value: 98.3%); design: scale not given: the % may be the effect or the level left; settings: candida albicans sc5314, 16 h, at 0.5 µg/mL
[11] = target: T1, Lanosterol 14-alpha demethylase; test: Inhibition of CYP51 in Candida albicans ATCC SC5314 assessed as Obtusifoliol level at 2 ug/ml after 16 hrs by GC-MS analysis (reference value: 0%); design: scale not given: the % may be the effect or the level left; settings: candida albicans sc5314, 16 h, at 2 µg/mL
[12] = target: T1, Lanosterol 14-alpha demethylase; test: Inhibition of CYP51 in Candida albicans ATCC SC5314 assessed as Eburicol level at […] ug/ml after 16 hrs by GC-MS analysis (reference value: 0%); design: scale not given: the % may be the effect or the level left; settings: candida albicans sc5314, 16 h, dose 0.125 µg/ml
[13] = Hemolytic activity in rabbit RBC assessed as hemolysis ratio at 2 ug/ml measured after 3 hrs by microplate reader assay relative to control; format: ADME, cell-based, Oryctolagus cuniculus, Erythrocyte; settings: rabbit red blood cells (erythrocytes), at 2 µg/mL, read-out: Activity
[14] = Hemolytic activity in rabbit RBC assessed as hemolysis ratio at 1 ug/ml measured after 3 hrs by microplate reader assay relative to control; format: ADME, cell-based, Oryctolagus cuniculus, Erythrocyte; settings: rabbit red blood cells (erythrocytes), at 1 µg/mL, read-out: Activity
[15] = Hemolytic activity in rabbit RBC assessed as hemolysis ratio at 16 ug/ml measured after 3 hrs by microplate reader assay relative to control; format: ADME, cell-based, Oryctolagus cuniculus, Erythrocyte; settings: rabbit red blood cells (erythrocytes), at 16 µg/mL, read-out: Activity
Nakaseomyces glabratus = test: Antifungal activity against Candida glabrata measured after 24 hrs by broth microdilution assay; format: functional
Candida albicans [16] = test: Anti-biofilm activity in Candida albicans CPCC400616 assessed as inhibition of biofilm formation incubated for 24 hrs with 1.5 hrs precultured fungal suspension by XTT assay; format: functional
Candida albicans [17] = test: Antifungal activity against Candida albicans CPCC400616 measured after 24 hrs by broth microdilution assay; format: functional
[18] = target: T1, Lanosterol 14-alpha demethylase; test: Inhibition of CYP51 in Candida albicans ATCC SC5314 assessed as Obtusifoliol level at 0.03125 ug/ml after 16 hrs by GC-MS analysis (reference value: 0%); design: scale not given: the % may be the effect or the level left; settings: candida albicans sc5314, 16 h, at 0.03125 µg/mL
Candida albicans [19] = test: Antifungal activity against Candida albicans ATCC SC5314 measured after 24 hrs by broth microdilution assay; format: functional
Candida parapsilosis = test: Antifungal activity against Candida parapsilosis ATCC 22019 measured after 24 hrs by broth microdilution assay; format: functional; settings: Lodderomyces parapsilosis
Candida albicans [20] = test: Anti-biofilm activity in Candida albicans CPCC400616 assessed as inhibition of biofilm formation incubated for 24 hrs with 24 hrs precultured fungal suspension by XTT assay; format: functional
[21] = target: T1, Lanosterol 14-alpha demethylase; test: Inhibition of CYP51 in Candida albicans ATCC SC5314 assessed as lanosterol level at 2 ug/ml after 16 hrs by GC-MS analysis (reference value: 1.7%); design: scale not given: the % may be the effect or the level left; settings: candida albicans sc5314, 16 h, at 2 µg/mL
[22] = target: T1, Lanosterol 14-alpha demethylase; test: Inhibition of CYP51 in Candida albicans ATCC SC5314 assessed as ergosterol level at […] ug/ml after 16 hrs by GC-MS analysis (reference value: 98.3%); design: scale not given: the % may be the effect or the level left; settings: candida albicans sc5314, 16 h, dose 0.125 µg/ml
[23] = target: T1, Lanosterol 14-alpha demethylase; test: Inhibition of CYP51 in Candida albicans ATCC SC5314 assessed as lanosterol level at 0.03125 ug/ml after 16 hrs by GC-MS analysis (reference value: 1.7%); design: scale not given: the % may be the effect or the level left; settings: candida albicans sc5314, 16 h, at 0.03125 µg/mL
[24] = Metabolic stability in mouse liver microsomes assessed as clearance; format: ADME, Microsome; settings: read-out: CLH
[25] = target: T1, Lanosterol 14-alpha demethylase; test: Inhibition of CYP51 in Candida albicans ATCC SC5314 assessed as Obtusifoliol level at […] ug/ml after 16 hrs by GC-MS analysis (reference value: 0%); design: scale not given: the % may be the effect or the level left; settings: candida albicans sc5314, 16 h, dose 0.125 µg/ml
Candida albicans [26] = test: Anti-biofilm activity in Candida albicans CPCC400616 assessed as inhibition of biofilm formation incubated for 24 hrs with 6 hrs precultured fungal suspension by XTT assay; format: functional
[27] = target: T1, Lanosterol 14-alpha demethylase; test: Inhibition of CYP51 in Candida albicans ATCC SC5314 assessed as Eburicol level at 8 ug/ml after 16 hrs by GC-MS analysis (reference value: 0%); design: scale not given: the % may be the effect or the level left; settings: candida albicans sc5314, 16 h, at 8 µg/mL

T1 sequence (P10613 whole entry): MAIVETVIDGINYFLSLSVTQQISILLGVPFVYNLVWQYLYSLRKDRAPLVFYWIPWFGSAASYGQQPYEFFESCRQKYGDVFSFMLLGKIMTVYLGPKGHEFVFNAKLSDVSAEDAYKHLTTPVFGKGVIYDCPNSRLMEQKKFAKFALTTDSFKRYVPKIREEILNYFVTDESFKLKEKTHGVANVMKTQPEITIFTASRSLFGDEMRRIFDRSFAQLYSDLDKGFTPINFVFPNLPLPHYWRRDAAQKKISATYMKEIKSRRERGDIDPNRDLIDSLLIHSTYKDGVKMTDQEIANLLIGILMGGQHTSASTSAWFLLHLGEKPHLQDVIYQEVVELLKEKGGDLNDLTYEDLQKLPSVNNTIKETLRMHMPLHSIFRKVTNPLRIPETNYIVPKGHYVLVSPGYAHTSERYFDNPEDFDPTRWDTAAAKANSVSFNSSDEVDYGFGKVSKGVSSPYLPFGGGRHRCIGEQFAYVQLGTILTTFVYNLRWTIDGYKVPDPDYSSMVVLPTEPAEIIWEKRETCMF

Compound Clc1ccc(COC(Cn2ccnc2)c2ccc(Cl)cc2Cl)c(Cl)c1 (stereo unspecified) [MICONAZOLE] has an IC50 (PC-3) of 13.4 µM, a hemolysis at 3 h, 8 ug/ml [1] of 87.3% and an MIC (Aspergillus fumigatus) of 2 µg/mL (≈ 4.81 µM). For the same compound, the MFC99 (Candida albicans [2]) was 2 µg/mL (≈ 4.81 µM), the MIC ([Candida] zeylanoides) was 1 µg/mL (≈ 2.4 µM) and the Activity [3] was 75.2%. The Activity [4] was 5.2%, the MIC (Pichia kudriavzevii) was 0.5 µg/mL (≈ 1.2 µM) and the hemolysis at 3 h, 4 ug/ml [5] was 81.8%. For the same compound, the Activity [6] was 8.9%, the Activity [7] was 9% and the Activity [8] was 70.6%. The MIC (Cryptococcus neoformans) was 0.5 µg/mL (≈ 1.2 µM), the Activity [9] was 4.1% and the IC50 (MDA-MB-231) was 17 µM. It also gave an Activity [10] of 7.1%, an Activity [11] of 6.1% and an Activity [12] of 64.8%. The hemolysis at 3 h, 2 ug/ml [13] was 8.55%, the hemolysis at 3 h, 1 ug/ml [14] was 0.16% and the hemolysis at 3 h, 16 ug/ml [15] was 94%. The MIC (Nakaseomyces glabratus) was 0.5 µg/mL (≈ 1.2 µM), the MIC50 (Candida albicans [16]) was 16 µg/mL (≈ 38.4 µM) and the MIC80 (Candida albicans [16]) was 128 µg/mL (≈ 308 µM). For the same compound, the MIC (Candida albicans [17]) was 0.25 µg/mL (≈ 0.601 µM), the Activity [18] was 7.2% and the MIC (Candida albicans [19]) was 0.03 µg/mL (≈ 0.0721 µM). It also gave an MIC (Candida parapsilosis) of 0.25 µg/mL (≈ 0.601 µM), an MIC50 (Candida albicans [20]) greater than 128 µg/mL and an MIC80 (Candida albicans [20]) greater than 128 µg/mL. It also gave an Activity [21] of 13.6%, an Activity [22] of 8.3% and an Activity [23] of 10%. For the same compound, the CLint scaled [24] was 660 mL/min/kg, the Activity [25] was 17.4% and the MIC50 (Candida albicans [26]) was greater than 128 µg/mL. For the same compound, the MIC80 (Candida albicans [26]) was greater than 128 µg/mL and the Activity [27] was 80.7%.
For Fc1ccc([Se]C(Cn2ccnc2)c2ccc(F)cc2F)cc1 (stereo unspecified), the IC50 (PC-3) was 54.4 µM, the hemolysis at 3 h, 8 ug/ml [1] was 0.33% and the MIC (Aspergillus fumigatus) was 4 µg/mL (≈ 10.5 µM). For the same compound, the MFC99 (Candida albicans [2]) was 1 µg/mL (≈ 2.62 µM), the MIC ([Candida] zeylanoides) was 0.25 µg/mL (≈ 0.656 µM) and the Activity [3] was 78%. It also gave an Activity [4] of 2.2%, an MIC (Pichia kudriavzevii) of 0.5 µg/mL (≈ 1.31 µM) and a hemolysis at 3 h, 4 ug/ml [5] of 0%. For the same compound, the Activity [6] was 10.1%, the Activity [7] was 9.9% and the Activity [8] was 70.2%. The MIC (Cryptococcus neoformans) was 0.5 µg/mL (≈ 1.31 µM), the Activity [9] was 2.1% and the IC50 (MDA-MB-231) was 39.5 µM. The Activity [10] was 4.9%, the Activity [11] was 10.8% and the Activity [12] was 73.2%. For the same compound, the hemolysis at 3 h, 2 ug/ml [13] was 0%, the hemolysis at 3 h, 1 ug/ml [14] was 0% and the hemolysis at 3 h, 16 ug/ml [15] was 100%. The MIC (Nakaseomyces glabratus) was 1 µg/mL (≈ 2.62 µM), the MIC50 (Candida albicans [16]) was 4 µg/mL (≈ 10.5 µM) and the MIC80 (Candida albicans [16]) was 8 µg/mL (≈ 21 µM). For the same compound, the MIC (Candida albicans [17]) was 0.25 µg/mL (≈ 0.656 µM), the Activity [18] was 17% and the MIC (Candida albicans [19]) was 0.02 µg/mL (≈ 0.0525 µM). The MIC (Candida parapsilosis) was 0.03 µg/mL (≈ 0.0787 µM), the MIC50 (Candida albicans [20]) was greater than 128 µg/mL and the MIC80 (Candida albicans [20]) was greater than 128 µg/mL. The Activity [21] was 9%, the Activity [22] was 5.8% and the Activity [23] was 4.1%. The CLint scaled [24] was 282 mL/min/kg, the Activity [25] was 11.1% and the MIC50 (Candida albicans [26]) was 64 µg/mL (≈ 168 µM). For the same compound, the MIC80 (Candida albicans [26]) was 128 µg/mL (≈ 336 µM) and the Activity [27] was 82%.
